Patent US20250017889A1, “INHIBITORS OF P1B-TYPE ATPASES” (THE CURATORS OF THE UNIVERSITY OF MISSOURI, priority 2021, published 2025)

How the values were obtained:
[1] = biological target: T1, ATP7A (Homo sapiens, UniProt Q04656); test: Microscale thermophoresis (MST) binding to GFP-ATP7A in HEK293 cell lysates; conditions: for Kd: MST analysis, read-out: ATP7A Binding Affinity KD
T1 construct: expressed in transfected cells; host or cells: HEK293 (detergent-free lysate)
T1 sequence (Q04656 1-1500): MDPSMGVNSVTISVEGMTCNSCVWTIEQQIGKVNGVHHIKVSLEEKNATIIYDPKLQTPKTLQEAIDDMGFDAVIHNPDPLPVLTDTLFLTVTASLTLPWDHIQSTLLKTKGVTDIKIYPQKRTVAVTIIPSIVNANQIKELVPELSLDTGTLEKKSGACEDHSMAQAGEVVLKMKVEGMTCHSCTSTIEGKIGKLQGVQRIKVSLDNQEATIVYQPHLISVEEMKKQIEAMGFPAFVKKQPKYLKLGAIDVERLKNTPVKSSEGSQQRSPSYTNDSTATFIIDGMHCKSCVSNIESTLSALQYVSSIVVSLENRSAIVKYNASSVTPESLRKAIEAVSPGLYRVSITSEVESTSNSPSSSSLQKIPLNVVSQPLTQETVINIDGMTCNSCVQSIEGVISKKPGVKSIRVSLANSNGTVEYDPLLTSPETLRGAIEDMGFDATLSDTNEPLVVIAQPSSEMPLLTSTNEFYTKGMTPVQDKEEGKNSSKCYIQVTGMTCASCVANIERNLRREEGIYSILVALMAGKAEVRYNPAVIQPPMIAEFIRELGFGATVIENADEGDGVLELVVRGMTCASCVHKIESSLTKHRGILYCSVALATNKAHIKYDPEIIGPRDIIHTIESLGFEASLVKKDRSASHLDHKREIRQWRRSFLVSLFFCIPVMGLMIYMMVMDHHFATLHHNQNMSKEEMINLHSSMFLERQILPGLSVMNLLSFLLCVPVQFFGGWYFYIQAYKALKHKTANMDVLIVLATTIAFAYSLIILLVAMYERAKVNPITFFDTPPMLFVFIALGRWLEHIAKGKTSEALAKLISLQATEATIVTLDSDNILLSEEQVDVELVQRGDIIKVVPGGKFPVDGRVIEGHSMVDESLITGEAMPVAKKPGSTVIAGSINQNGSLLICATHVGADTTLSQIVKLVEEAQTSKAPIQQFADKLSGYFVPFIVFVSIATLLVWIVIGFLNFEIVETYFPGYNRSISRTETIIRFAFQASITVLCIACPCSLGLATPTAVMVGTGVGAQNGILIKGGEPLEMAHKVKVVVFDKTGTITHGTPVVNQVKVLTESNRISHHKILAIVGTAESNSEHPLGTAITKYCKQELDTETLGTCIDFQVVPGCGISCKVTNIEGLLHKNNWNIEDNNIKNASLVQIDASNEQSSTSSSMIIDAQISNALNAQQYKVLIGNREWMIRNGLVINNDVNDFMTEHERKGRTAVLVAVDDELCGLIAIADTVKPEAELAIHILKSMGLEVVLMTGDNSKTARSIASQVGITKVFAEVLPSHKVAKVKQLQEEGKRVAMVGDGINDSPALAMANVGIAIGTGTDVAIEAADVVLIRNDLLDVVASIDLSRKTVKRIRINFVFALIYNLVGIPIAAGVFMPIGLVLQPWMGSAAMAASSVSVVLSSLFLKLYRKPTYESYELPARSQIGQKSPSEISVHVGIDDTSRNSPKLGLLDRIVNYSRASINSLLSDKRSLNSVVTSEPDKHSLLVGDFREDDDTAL

[2] = system: tyrosinase activity in B16 melanoma cells; test: Tyrosinase activity in wild type B16 melanoma cells (L-DOPA to DOPAchrome), proxy for ATP7A inhibition; assay type: cell-based; conditions: for IC50: Mus musculus, B16 cells
From the text: Tyrosinase is a cuproenzyme involved in melanogenesis that receives copper via ATP7A in the secretory pathway. […] Thus, reductions in tyrosinase activity in wild type B16 cells can be used as a proxy for inhibition of ATP7A. […]

[3] = biological target: T2, ATP7B (Homo sapiens, UniProt P35670); test: Microscale thermophoresis (MST) binding to GFP-ATP7B in HEK293 cell lysates; conditions: MST
T2 construct: expressed in transfected cells; host or cells: HEK293 (detergent-free lysate)
T2 sequence (P35670 1-1465): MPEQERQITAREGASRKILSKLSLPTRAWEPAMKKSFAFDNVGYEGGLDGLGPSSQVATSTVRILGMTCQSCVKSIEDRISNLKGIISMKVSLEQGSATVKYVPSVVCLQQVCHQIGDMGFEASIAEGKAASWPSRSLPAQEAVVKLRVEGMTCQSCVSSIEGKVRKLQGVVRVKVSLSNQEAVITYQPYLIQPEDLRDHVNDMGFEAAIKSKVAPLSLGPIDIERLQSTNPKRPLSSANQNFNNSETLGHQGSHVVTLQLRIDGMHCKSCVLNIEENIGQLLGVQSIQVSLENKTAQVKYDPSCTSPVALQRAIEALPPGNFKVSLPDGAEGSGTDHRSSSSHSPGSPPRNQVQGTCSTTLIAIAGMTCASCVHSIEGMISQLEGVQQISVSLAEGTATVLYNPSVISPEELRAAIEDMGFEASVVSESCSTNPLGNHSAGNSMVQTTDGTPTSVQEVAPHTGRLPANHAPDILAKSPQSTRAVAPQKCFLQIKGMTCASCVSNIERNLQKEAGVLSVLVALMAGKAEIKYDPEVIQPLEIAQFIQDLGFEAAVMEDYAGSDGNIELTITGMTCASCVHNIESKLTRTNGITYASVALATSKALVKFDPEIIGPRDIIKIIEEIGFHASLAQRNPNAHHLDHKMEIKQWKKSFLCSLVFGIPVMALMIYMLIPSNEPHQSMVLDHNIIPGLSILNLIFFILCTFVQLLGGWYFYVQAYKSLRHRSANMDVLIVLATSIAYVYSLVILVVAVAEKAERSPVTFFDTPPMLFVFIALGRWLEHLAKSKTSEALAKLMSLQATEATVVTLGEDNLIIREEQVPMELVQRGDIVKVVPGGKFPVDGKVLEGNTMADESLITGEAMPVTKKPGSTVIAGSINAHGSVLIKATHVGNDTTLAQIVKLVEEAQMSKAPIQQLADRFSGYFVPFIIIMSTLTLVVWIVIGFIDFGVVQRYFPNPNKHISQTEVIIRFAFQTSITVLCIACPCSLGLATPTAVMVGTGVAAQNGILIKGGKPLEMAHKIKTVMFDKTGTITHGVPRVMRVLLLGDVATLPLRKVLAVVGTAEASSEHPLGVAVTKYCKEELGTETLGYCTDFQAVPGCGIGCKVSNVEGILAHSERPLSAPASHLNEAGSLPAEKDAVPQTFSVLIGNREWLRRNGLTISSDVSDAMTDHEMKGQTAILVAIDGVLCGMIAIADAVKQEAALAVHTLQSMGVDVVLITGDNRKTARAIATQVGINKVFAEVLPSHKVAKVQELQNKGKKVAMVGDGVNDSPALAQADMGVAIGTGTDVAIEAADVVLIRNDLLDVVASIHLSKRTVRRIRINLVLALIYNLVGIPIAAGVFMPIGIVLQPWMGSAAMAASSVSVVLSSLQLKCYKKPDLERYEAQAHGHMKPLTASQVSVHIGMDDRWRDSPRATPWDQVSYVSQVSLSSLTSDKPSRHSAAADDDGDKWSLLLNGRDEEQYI
From the text: (§1) Coordinating residues D935 and E798 are predicted to bind copper during transport.

[4] = system: GFP alone; test: Microscale thermophoresis (MST), GFP alone as negative control; assay type: binding
From the text: as §1

[5] = Cytotoxicity in B16 cells by MTT and crystal violet assays; assay type: cell-based; conditions: mouse, B16 melanoma cells; B16 cells, MTT and crystal violet assays; read-out: half-maximal cytotoxic concentration (CC50)
From the text: This is consistent with lower affinity of MKV1 for ATP7A (FIG. 6E).

[6] = system: LOX activity; test: LOX activity secreted into conditioned media of cancer cells; assay type: cell-based; conditions: 4T1 breast cancer cells, compared with MKV3
[7] = system: ΔcopA/ΔcopB strain of S. aureus; test: Growth of copper-sensitive ΔcopA/ΔcopB mutant strain of S. aureus; assay type: cell-based, Staphylococcus aureus; conditions: copper alone 50 μM
Procedure: Methicillin-resistant Staphylococcus aureus (MRSA) is a human pathogen that expresses two Cu-transporting P1B-type ATPases, CopA and CopB, which are known to enhance the virulence of this bacterium. 19A illustrates CopA and CopB copper exporters at the plasma membrane of S. aureus. […] The growth of the ΔcopA/ΔcopB strain was inhibited by approximately 50% when copper alone (50 μM) was added to the culture medium.
Wild type MRSA expresses two copper-exporting P1B-type ATPases, CopA and CopB that are required for copper tolerance (FIG. 19A). […] The same experiment was performed using MRSA in which both CopA and CopB genes were deleted (ΔcopA/ΔcopB). Consistent with the known role of CopA and CopB in copper tolerance, the growth of the ΔcopA/ΔcopB strain was inhibited by approximately 50% when copper alone (50 μM) was added to the culture medium (FIG. 19C).

Row | Compound | Kd [1] [µM] | IC50 [2] [µM] | other results
1 | O=C(CC(=S)Nc1ccccc1)Nc1cccc(C(F)(F)F)c1 [MKV1C] | 0.43 ± 0.016 | 16.18 ± 0.023 | 
2 | O=C(CC(=S)Nc1ccccc1Cl)Nc1cccc(C(F)(F)F)c1 [MKV1D] | 0.708 ± 0.042 | 12.222 ± 0.005 | 
3 | N#CC(C(=O)Nc1ccccc1)C(=S)Nc1ccccc1Cl (stereo not drawn) [MKV1E] | 1.06 ± 0.054 | 11.7 ± 0.001 | 
4 | N#CC(C(=O)Nc1cccc(C(F)(F)F)c1)C(=S)Nc1ccccc1 (stereo not drawn) [MKV1F] | 1 ± 0.059 | 8.719 ± 0.014 | 
5 | copper |  |  | inhibition of growth of the ΔcopA/ΔcopB strain [7]: approximately 50%

The next lines start with results.

Row | Kd [1] [µM] | IC50 [2] [µM] | Compound | other results
6 | 0.363 ± 0.024 | 21.559 ± 0.005 | O=C(CC(=S)Nc1ccccc1Cl)Nc1ccccc1 [MKV1A] | 
7 | 0.354 ± 0.021 | 21.87 ± 0.129 | N#CC(C(=O)Nc1ccccc1)C(=S)Nc1ccccc1 (stereo not drawn) [MKV1B] | 
8 | 1.83 ± 0.151 | 29.98 ± 0.029 | O=C(CC(=S)Nc1ccccc1)Nc1ccccc1 [MKV1] | fold difference in affinity for ATP7A between MKV3 (higher) and MKV1 (lower) ([1]; MST): approximately 10 fold; fold difference in affinity for ATP7B between MKV3 (higher) and MKV1 (lower) [3]: approximately 10 fold; binding to GFP alone [4]: not to GFP alone; in situ tyrosinase activity ([2]; 50 μM, 24 h, wild type B16 melanoma cells): loss of tyrosinase activity; CC50 [5]: ~270 µM; LOX activity [6]: inhibited LOX activity but only at higher concentrations than for MKV3
